In ChEMBL document CHEMBL4396905, “Design, synthesis and in vitro evaluation of 6-amide-2-aryl benzoxazole/benzimidazole derivatives against tumor cells by inhibiting VEGFR-2 kinase” (Eur J Med Chem, 2019):
The source made the active and inactive calls. No cut-off for these calls is given here.

What was measured:
[1] = system: HUVEC; assay: Cell cycle arrest in human HUVEC cells assessed as accumulation at G0/G1 phase incuabted for 24 hrs by PI staining based flow cytometry; assay type: functional
[2] = system: Chorioallantoic membrane; assay: Antiangiogenic activity in chicken chorioallantoic membrane assessed as reduction in number of blood vessels at 0.1 nM per egg measured after 48 hrs by CAM assay relative to control; assay type: functional, cell membranes; settings: Gallus gallus
[3] = system: HUVEC; assay: Cell cycle arrest in human HUVEC cells assessed as accumulation at G0/G1 phase at 1 nM incuabted for 24 hrs by PI staining based flow cytometry (reference value: 43.2%); assay type: functional
[4] = molecular target: Hepatocyte growth factor receptor (Homo sapiens) (UniProt P08581); assay: Inhibition of MET (unknown origin) at 1 uM
[5] = system: HUVEC; assay: Induction of apoptosis in human HUVEC cells assessed as necrotic cells at 10 nM incubated for 24 hrs by dUTP-FITC/PI staining based flow cytometry (reference value: 6.9%); assay type: functional
[6] = system: HepG2; assay: Cell cycle arrest in human HepG2 cells assessed as accumulation at G2/M phase at 1 nM incuabted for 24 hrs by PI staining based flow cytometry (reference value: 42.3%); assay type: functional
[7] = system: HUVEC; assay: Cell cycle arrest in human HUVEC cells assessed as accumulation at S phase at 1 nM incuabted for 24 hrs by PI staining based flow cytometry (reference value: 10.4%); assay type: functional
[8] = system: HepG2; assay: Induction of apoptosis in human HepG2 cells assessed as necrotic cells at 10 nM incubated for 24 hrs by dUTP-FITC/PI staining based flow cytometry (reference value: 10.2%); assay type: functional
[9] = system: HUVEC; assay: Induction of apoptosis in human HUVEC cells assessed as necrotic cells at 1 nM incubated for 24 hrs by dUTP-FITC/PI staining based flow cytometry (reference value: 6.9%); assay type: functional
[10] = system: HepG2; assay: Induction of apoptosis in human HepG2 cells assessed as apoptotic cells at 10 nM incubated for 24 hrs by dUTP-FITC/PI staining based flow cytometry (reference value: 3.3%); assay type: functional
[11] = system: HUVEC; assay: Cell cycle arrest in human HUVEC cells assessed as accumulation at G2/M phase at 1 nM incuabted for 24 hrs by PI staining based flow cytometry (reference value: 46.4%); assay type: functional
[12] = molecular target: Platelet-derived growth factor receptor beta (Homo sapiens) (UniProt P09619); assay: Inhibition of PDGFRbeta (unknown origin) at 1 uM
[13] = system: HUVEC; assay: Cell cycle arrest in human HUVEC cells assessed as accumulation at G2/M phase at 10 nM incuabted for 24 hrs by PI staining based flow cytometry (reference value: 46.4%); assay type: functional
[14] = system: HUVEC; assay: Induction of apoptosis in human HUVEC cells assessed as apoptotic cells at 1 nM incubated for 24 hrs by dUTP-FITC/PI staining based flow cytometry (reference value: 4.9%); assay type: functional
[15] = system: HUVEC; assay: Induction of apoptosis in human HUVEC cells assessed as apoptotic cells at 10 nM incubated for 24 hrs by dUTP-FITC/PI staining based flow cytometry (reference value: 4.9%); assay type: functional
[16] = system: Chorioallantoic membrane; assay: Antiangiogenic activity in chicken chorioallantoic membrane assessed as reduction in number of blood vessels at 1 nM per egg measured after 48 hrs by CAM assay relative to control; assay type: functional, cell membranes; settings: Gallus gallus
[17] = system: HUVEC; assay: Cell cycle arrest in human HUVEC cells assessed as accumulation at G0/G1 phase at 10 nM incuabted for 24 hrs by PI staining based flow cytometry (reference value: 43.2%); assay type: functional
[18] = molecular target: T1, Vascular endothelial growth factor receptor 2 (Homo sapiens, UniProt P35968); assay: Inhibition of VEGFR2 in human HUVEC cells assessed as reduction in phosphorylation of VEGFR2 at 2 to 4 uM incubated for 24 hrs by Western blot analysis; assay type: cell-based
[19] = system: HepG2; assay: Cell cycle arrest in human HepG2 cells assessed as accumulation at S phase at 1 nM incuabted for 24 hrs by PI staining based flow cytometry (reference value: 9.8%); assay type: functional
[20] = molecular target: Platelet-derived growth factor receptor alpha (Homo sapiens) (UniProt P16234); assay: Inhibition of PDGFRalpha (unknown origin) at 1 uM
[21] = system: HepG2; assay: Induction of apoptosis in human HepG2 cells assessed as necrotic cells at 1 nM incubated for 24 hrs by dUTP-FITC/PI staining based flow cytometry (reference value: 10.2%); assay type: functional
[22] = system: HepG2; assay: Cell cycle arrest in human HepG2 cells assessed as accumulation at G0/G1 phase incuabted for 24 hrs by PI staining based flow cytometry; assay type: functional
[23] = system: HepG2; assay: Cell cycle arrest in human HepG2 cells assessed as accumulation at G0/G1 phase at 10 nM incuabted for 24 hrs by PI staining based flow cytometry (reference value: 47.9%); assay type: functional
[24] = molecular target: T1, Vascular endothelial growth factor receptor 2; assay: Inhibition of VEGFR2 (unknown origin) using Poly (Glu, Tyr) 4:1 as substrate preincubated with substrate followed by enzyme challenge for 1 hr by ELISA
[25] = molecular target: T1, Vascular endothelial growth factor receptor 2; settings: at 1 µM
Description: Inhibition of VEGFR2 (unknown origin) using Poly (Glu, Tyr) 4:1 as substrate at 1 uM preincubated with substrate followed by enzyme challenge for 1 hr by ELISA relative to control

[26] = system: HepG2; assay: Induction of apoptosis in human HepG2 cells assessed as apoptotic cells at 1 nM incubated for 24 hrs by dUTP-FITC/PI staining based flow cytometry (reference value: 3.3%); assay type: functional
[27] = system: HUVEC; assay: Cell cycle arrest in human HUVEC cells assessed as accumulation at S phase at 10 nM incuabted for 24 hrs by PI staining based flow cytometry (reference value: 10.4%); assay type: functional
[28] = molecular target: Epidermal growth factor receptor (Homo sapiens) (UniProt P00533); assay: Inhibition of EGFR (unknown origin) using Poly (Glu, Tyr) 4:1 as substrate at 1 uM preincubated with substrate followed by enzyme challenge for 1 hr by ELISA relative to control
[29] = molecular target: Vascular endothelial growth factor receptor 3 (Homo sapiens) (UniProt P35916); assay: Inhibition of FLT4 (unknown origin) 1 uM
[30] = system: HepG2; assay: Antiproliferative activity against human HepG2 cells expressing VEGFR2 assessed as reduction in cell growth incubated for 48 hrs by MTT assay; assay type: functional, cell-based; settings: HepG2, 48 h
[31] = system: HepG2; assay: Cell cycle arrest in human HepG2 cells assessed as accumulation at S phase at 10 nM incuabted for 24 hrs by PI staining based flow cytometry (reference value: 9.8%); assay type: functional
[32] = system: HUVEC; assay: Antiproliferative activity against human HUVEC cells expressing VEGFR2 assessed as reduction in cell growth incubated for 48 hrs by MTT assay; assay type: functional, cell-based
[33] = system: Chorioallantoic membrane; assay: Antiangiogenic activity in chicken chorioallantoic membrane assessed as reduction in number of blood vessels at 10 nM per egg measured after 48 hrs by CAM assay relative to control; assay type: functional, cell membranes; settings: Gallus gallus
[34] = system: HepG2; assay: Cell cycle arrest in human HepG2 cells assessed as accumulation at G0/G1 phase at 1 nM incuabted for 24 hrs by PI staining based flow cytometry (reference value: 47.9%); assay type: functional
[35] = system: Chorioallantoic membrane; assay: Antiangiogenic activity in chicken chorioallantoic membrane assessed as reduction in number of blood vessels measured after 48 hrs by CAM assay; assay type: functional, cell membranes; settings: Gallus gallus
[36] = system: HepG2; assay: Cell cycle arrest in human HepG2 cells assessed as accumulation at G2/M phase at 10 nM incuabted for 24 hrs by PI staining based flow cytometry (reference value: 42.3%); assay type: functional
[37] = system: MDA-MB-231; assay: Antiproliferative activity against human MDA-MB-231 cells expressing EGFR assessed as reduction in cell growth incubated for 48 hrs by MTT assay; assay type: functional, cell-based; settings: MDA-MB-231, 48 h
[38] = Cytotoxicity against human LO2 cells assessed as reduction in cell viability at 10 uM relative to control; assay type: cell-based, L02; settings: read-out: INH
[39] = molecular target: Vascular endothelial growth factor receptor 1 (Homo sapiens) (UniProt P17948); assay: Inhibition of FLT1 (unknown origin) at 1 uM
[40] = system: A549; assay: Antiproliferative activity against human A549 cells expressing EGFR assessed as reduction in cell growth incubated for 48 hrs by MTT assay; assay type: functional, cell-based; settings: A549, 48 h

Chain of Epidermal growth factor receptor (Homo sapiens) (P00533 whole entry): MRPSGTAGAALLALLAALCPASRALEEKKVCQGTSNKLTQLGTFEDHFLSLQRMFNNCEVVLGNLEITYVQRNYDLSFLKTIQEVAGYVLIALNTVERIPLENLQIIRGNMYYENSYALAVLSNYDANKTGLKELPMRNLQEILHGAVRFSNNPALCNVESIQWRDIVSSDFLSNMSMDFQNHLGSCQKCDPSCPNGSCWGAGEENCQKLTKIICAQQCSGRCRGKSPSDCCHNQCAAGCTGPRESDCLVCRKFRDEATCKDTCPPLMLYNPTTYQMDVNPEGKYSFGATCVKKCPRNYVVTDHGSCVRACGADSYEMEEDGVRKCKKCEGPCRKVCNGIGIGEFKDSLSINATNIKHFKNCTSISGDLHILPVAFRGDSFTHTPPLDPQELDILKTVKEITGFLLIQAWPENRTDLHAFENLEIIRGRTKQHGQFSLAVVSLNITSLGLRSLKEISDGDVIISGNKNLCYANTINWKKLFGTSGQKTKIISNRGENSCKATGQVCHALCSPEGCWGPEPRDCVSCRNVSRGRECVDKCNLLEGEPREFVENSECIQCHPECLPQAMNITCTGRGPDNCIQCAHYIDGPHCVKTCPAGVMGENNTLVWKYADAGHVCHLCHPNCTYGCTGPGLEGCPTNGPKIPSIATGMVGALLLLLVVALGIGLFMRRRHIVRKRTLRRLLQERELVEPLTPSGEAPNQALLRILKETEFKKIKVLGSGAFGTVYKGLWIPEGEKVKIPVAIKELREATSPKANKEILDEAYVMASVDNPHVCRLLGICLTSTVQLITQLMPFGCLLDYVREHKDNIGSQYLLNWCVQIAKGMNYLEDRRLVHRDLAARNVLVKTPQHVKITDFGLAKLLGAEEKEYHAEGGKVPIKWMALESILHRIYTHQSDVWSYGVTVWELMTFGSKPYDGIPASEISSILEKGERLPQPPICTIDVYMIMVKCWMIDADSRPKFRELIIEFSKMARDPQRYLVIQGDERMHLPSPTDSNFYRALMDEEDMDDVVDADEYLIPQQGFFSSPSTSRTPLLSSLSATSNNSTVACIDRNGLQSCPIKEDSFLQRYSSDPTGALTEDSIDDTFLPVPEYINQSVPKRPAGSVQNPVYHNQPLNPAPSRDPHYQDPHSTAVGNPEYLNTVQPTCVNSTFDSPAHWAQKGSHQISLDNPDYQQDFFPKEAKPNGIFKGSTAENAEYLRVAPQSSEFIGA
T1 sequence (P35968 whole entry): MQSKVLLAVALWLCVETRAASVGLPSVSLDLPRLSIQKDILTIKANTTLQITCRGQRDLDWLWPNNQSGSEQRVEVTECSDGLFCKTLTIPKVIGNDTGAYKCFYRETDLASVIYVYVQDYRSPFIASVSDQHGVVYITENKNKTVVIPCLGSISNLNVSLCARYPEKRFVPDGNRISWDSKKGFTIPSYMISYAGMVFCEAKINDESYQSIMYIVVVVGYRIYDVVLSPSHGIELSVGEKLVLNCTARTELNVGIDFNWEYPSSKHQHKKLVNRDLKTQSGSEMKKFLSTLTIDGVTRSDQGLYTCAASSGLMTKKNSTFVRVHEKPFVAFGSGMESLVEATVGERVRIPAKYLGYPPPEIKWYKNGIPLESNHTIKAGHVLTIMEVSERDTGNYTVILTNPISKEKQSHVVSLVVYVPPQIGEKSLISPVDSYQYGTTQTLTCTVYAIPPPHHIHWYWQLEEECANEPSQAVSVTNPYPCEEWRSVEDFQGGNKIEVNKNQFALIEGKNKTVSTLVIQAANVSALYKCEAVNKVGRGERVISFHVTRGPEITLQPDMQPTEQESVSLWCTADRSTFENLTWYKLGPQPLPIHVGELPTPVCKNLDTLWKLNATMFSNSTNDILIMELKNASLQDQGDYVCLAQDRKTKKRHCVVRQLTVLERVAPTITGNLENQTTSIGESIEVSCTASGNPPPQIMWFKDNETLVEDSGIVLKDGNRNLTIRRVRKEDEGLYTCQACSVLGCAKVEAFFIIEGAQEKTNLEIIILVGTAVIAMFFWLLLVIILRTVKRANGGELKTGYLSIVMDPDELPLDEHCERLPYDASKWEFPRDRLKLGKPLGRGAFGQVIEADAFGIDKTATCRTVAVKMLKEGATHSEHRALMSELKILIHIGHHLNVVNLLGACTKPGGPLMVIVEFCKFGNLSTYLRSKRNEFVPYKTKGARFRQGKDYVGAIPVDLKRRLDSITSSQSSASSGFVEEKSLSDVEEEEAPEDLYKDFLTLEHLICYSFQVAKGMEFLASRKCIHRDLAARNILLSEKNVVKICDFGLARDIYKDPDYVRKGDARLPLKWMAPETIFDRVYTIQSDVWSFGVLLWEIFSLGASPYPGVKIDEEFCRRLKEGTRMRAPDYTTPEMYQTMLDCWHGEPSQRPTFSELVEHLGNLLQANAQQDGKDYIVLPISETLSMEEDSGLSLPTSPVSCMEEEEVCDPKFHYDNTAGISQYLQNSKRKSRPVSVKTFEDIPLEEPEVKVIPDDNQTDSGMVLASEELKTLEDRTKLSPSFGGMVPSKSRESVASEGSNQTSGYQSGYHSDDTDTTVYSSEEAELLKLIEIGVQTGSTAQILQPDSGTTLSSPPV
Chain of Hepatocyte growth factor receptor (Homo sapiens) (P08581 whole entry): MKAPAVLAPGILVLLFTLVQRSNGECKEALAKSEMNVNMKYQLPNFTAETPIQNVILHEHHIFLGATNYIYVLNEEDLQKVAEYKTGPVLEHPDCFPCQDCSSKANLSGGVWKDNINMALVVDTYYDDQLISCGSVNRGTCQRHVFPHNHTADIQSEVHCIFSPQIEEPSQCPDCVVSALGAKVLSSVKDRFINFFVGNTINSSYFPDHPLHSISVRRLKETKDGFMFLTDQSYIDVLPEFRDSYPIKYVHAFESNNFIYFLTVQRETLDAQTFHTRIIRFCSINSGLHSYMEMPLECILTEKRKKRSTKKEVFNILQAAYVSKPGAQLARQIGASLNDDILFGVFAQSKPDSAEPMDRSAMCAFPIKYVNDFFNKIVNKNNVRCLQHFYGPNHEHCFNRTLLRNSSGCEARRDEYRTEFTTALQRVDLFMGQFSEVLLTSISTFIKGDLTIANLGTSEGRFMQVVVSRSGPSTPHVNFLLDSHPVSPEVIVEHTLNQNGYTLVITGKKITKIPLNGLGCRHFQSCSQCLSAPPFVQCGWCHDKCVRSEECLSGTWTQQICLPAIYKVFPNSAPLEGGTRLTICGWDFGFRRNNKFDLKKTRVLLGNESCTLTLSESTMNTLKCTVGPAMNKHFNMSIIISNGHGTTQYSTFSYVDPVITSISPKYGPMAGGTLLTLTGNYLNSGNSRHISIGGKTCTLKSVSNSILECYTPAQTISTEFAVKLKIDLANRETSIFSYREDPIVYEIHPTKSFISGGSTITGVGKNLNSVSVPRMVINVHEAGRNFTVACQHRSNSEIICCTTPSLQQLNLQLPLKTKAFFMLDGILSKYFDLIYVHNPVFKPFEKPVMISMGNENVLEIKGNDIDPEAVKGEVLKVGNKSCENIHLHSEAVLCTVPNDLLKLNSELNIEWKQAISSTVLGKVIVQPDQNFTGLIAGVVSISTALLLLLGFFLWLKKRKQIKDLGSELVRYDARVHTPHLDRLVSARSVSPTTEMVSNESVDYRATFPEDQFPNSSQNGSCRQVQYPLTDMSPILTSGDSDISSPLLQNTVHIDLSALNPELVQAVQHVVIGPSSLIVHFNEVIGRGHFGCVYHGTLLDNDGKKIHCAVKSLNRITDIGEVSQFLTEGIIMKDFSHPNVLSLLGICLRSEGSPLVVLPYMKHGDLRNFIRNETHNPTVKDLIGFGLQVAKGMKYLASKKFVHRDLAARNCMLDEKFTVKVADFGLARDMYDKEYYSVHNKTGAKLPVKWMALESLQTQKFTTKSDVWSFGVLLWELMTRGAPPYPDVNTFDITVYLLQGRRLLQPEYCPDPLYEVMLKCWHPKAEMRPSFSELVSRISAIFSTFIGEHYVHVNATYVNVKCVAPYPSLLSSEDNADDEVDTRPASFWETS
Chain of Platelet-derived growth factor receptor alpha (Homo sapiens) (P16234 whole entry): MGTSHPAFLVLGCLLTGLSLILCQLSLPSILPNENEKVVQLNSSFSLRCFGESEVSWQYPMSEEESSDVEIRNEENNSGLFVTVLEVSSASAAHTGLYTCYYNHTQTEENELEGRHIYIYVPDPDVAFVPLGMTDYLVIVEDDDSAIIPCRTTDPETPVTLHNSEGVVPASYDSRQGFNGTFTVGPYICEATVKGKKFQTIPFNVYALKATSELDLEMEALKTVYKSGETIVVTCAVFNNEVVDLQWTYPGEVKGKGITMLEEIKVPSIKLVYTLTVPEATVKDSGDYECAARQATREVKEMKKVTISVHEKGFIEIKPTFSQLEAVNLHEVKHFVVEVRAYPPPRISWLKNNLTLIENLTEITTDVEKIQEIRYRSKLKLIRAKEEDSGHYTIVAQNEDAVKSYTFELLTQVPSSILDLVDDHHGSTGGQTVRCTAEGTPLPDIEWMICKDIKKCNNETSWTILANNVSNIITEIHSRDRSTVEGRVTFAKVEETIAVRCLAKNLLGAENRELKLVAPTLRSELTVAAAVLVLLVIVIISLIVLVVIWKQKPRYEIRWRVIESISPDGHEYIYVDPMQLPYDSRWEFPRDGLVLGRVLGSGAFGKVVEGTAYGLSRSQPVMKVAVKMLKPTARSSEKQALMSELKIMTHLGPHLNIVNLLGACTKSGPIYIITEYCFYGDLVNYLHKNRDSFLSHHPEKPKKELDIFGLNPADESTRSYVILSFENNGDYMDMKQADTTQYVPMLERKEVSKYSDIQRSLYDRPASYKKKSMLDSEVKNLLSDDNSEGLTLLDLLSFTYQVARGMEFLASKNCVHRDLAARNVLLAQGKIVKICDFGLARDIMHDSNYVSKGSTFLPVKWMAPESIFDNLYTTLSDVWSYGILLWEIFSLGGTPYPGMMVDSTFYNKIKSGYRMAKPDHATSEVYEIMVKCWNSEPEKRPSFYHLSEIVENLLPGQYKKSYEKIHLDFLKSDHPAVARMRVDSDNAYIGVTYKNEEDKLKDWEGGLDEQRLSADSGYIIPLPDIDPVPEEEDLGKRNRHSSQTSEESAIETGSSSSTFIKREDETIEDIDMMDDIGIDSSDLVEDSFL

Q: Which Activity [1] does the source give for `COc1ccc(CC(=O)Nc2ccc3[nH]c(-c4ccc(Cl)cc4)nc3c2)cc1` here?
A: Dose-dependent effect

Q: What about the inhibition [2] of the same compound?
A: 28%

Q: What about the Activity [3] of the same compound?
A: 59.3%

Q: And the inhibition [4]?
A: -3.6%

Q: And the Activity [5]?
A: 2.5%

Q: What about the Activity [6] of the same compound?
A: 36.2%

Q: And the Activity [7]?
A: 8.9%

Q: What about the Activity [8] of the same compound?
A: 5.9%

Q: And the Activity [9]?
A: 6.9%

Q: What about the Activity [10] of the same compound?
A: 28.1%

Q: What about the Activity [11] of the same compound?
A: 31.8%

Q: And the inhibition [12]?
A: 2.7%

Q: What about the Activity [13] of the same compound?
A: 21.3%

Q: And the Activity [14]?
A: 18.9%

Q: What about the Activity [15] of the same compound?
A: 34.3%

Q: What about the inhibition [16] of the same compound?
A: 51%

Q: And the Activity [17]?
A: 71.4%

Q: What about the inhibition [18] of the same compound?
A: Active

Q: And the Activity [19]?
A: 8.1%

Q: What about the inhibition [20] of the same compound?
A: -3.5%

Q: And the Activity [21]?
A: 7.3%

Q: What about the Activity [22] of the same compound?
A: Dose-dependent effect

Q: What about the Activity [23] of the same compound?
A: 68%

Q: What about the IC50 [24] of the same compound?
A: 0.0514 µM

Q: And the inhibition [25]?
A: 103%

Q: And the Activity [26]?
A: 13.7%

Q: What about the Activity [27] of the same compound?
A: 7.3%

Q: What about the inhibition [28] of the same compound?
A: 58.3%

Q: What about the inhibition [29] of the same compound?
A: 18.5%

Q: What about the IC50 [30] of the same compound?
A: 2.57 µM

Q: And the Activity [31]?
A: 6.7%

Q: And the IC50 [32]?
A: 1.47 µM

Q: And the inhibition [33]?
A: 79%

Q: What about the Activity [34] of the same compound?
A: 55.7%

Q: And the inhibition [35]?
A: Dose-dependent effect

Q: What about the Activity [36] of the same compound?
A: 25.3%

Q: What about the IC50 [37] of the same compound?
A: 57.3 µM

Q: What about the cytotoxicity at 10 µM [38] of the same compound?
A: 56.4%

Q: And the inhibition [39]?
A: 26.1%

Q: What about the IC50 [40] of the same compound?
A: 73.8 µM

Q: With `Cc1ccc(CC(=O)Nc2ccc3oc(-c4ccccc4Br)nc3c2)cc1` as the compound, how does the IC50 [24] read?
A: 0.842 µM

Q: And the inhibition [25]?
A: 89.1%

Q: What about the inhibition [28] of the same compound?
A: 39.1%

Q: What about the IC50 [30] of the same compound?
A: 33.1 µM

Q: What about the IC50 [32] of the same compound?
A: 23.6 µM

Q: What about the IC50 [37] of the same compound?
A: 74.3 µM

Q: And the IC50 [40]?
A: 40.2 µM

Q: Which IC50 [24] does the source give for `O=C(Nc1ccc2oc(-c3ccc(Cl)cc3)nc2c1)c1ccc(Cl)c(Br)c1` here?
A: 0.338 µM

Q: What about the inhibition [25] of the same compound?
A: 90.2%

Q: And the inhibition [28]?
A: 44.1%

Q: And the IC50 [30]?
A: 37 µM

Q: And the IC50 [32]?
A: 13.4 µM

Q: What about the IC50 [37] of the same compound?
A: > 100 µM

Q: What about the IC50 [40] of the same compound?
A: > 100 µM

Q: Which IC50 [24] does the source give for `O=C(Nc1ccc2[nH]c(-c3ccc(Cl)cc3)nc2c1)c1ccc(Cl)c(F)c1` here?
A: 0.988 µM

Q: What about the inhibition [25] of the same compound?
A: 87.5%

Q: What about the inhibition [28] of the same compound?
A: 45.2%

Q: And the IC50 [30]?
A: 26.3 µM

Q: What about the IC50 [32] of the same compound?
A: 13.4 µM

Q: And the IC50 [37]?
A: 69.4 µM

Q: And the IC50 [40]?
A: 36.6 µM

Q: With `COc1ccc(CC(=O)Nc2ccc3oc(-c4ccccc4F)nc3c2)cc1` as the compound, how does the IC50 [24] read?
A: 0.166 µM

Q: What about the inhibition [25] of the same compound?
A: 94.6%

Q: What about the inhibition [28] of the same compound?
A: 42.8%

Q: What about the IC50 [30] of the same compound?
A: 37.3 µM

Q: And the IC50 [32]?
A: 14.2 µM

Q: And the IC50 [37]?
A: > 100 µM

Q: And the IC50 [40]?
A: > 100 µM

Q: What does the source list for `Cc1ccc(CC(=O)Nc2ccc3oc(-c4ccccc4F)nc3c2)cc1`?
A: IC50 [24]: 0.233 µM; inhibition [25]: 97.3%; inhibition [28]: 39.5%; IC50 [30]: 39.2 µM; IC50 [32]: 12.8 µM; IC50 [37]: 93.7 µM; IC50 [40]: 83.3 µM
